Results: US20230234920A1, “Azirine Containing Compounds as Anti-Angiogenesis Agents and a Process for the Preparation Thereof” (COUNCIL OF SCIENTIFIC & INDUSTRIAL RESEARCH, priority 2020, published 2023)
Read-outs that look alike come from different tables or passages of the source.

Tested on: HUVECs
Experiment: Capillary-like tube formation assay (tubulogenesis)
Assay type: cell-based, human
Conditions: for IC50: Homo sapiens, HUVEC, read-out: IC50 value; for remarks: remark on IC50 versus sunitinib
Protocol: FIG. 2 represents effect of Compound 1 on capillary tube formation of HUVECs. Endothelial cells in Matrigel were incubated with ECM basal medium in the presence of compound 1 at the indicated concentrations for 6 h. Cell viability was assessed by Calcein-AM dye added few min. before the completion of 6 h. then photographs at 10×magnification were taken using an inverted microscope. The tubule length of HUVECs was quantified by Leica QWin software. Tubule network formation is expressed as a percentage of that vehicle (0.1% DMSO) treated cells (control).
FIG. 9 represents effect of racemic mixture (chiral isomer 1-1 and chiral isomer 2-1) of Compound 1 on capillary tube formation of HUVECs. Endothelial cells seeded in matrigel were incubated at the indicated concentrations of compound 1 racemic mixtures (1-1 and 2-1) with ECM basal medium for 6 h. Calcein-AM treatment was added to the ECs few minutes before completion of 6 h and pictures were captured using an inverted microscope at 10×magnification. The tubular structures of HUVECs were measured using Leica QWin software and tubulogenesis was expressed as a % of that vehicle (0.1% DMSO) treated cells (control) well.
HUVEC cells were incubated with or without sunitinib (20 nM) for 6 h at indicated concentrations of chiral isomers of Compound 1 (1-1 and 2-1). Photographs were taken using an inverted microscope at 10×magnification after Calcein-AM treatment to the ECs few minutes before completion of 6 h. The tubule length of HUVECs was quantified by Leica QWin software represented as a % of that vehicle (0.1% DMSO) treated cells (control) well.
To examine the effect of Compound 1 on angiogenesis, capillary tube formation assay was performed on regular or reduced growth factor Matrigel, taking VEGF (50 ng/mL) treated cells as a positive control and sunitinib (50 nM) as a negative control (FIG. 2). HUVECs seeded onto the matrigel with compound 1 at different concentrations of (10 μM, 5 μM, 1 μM, 800 nM, 500 nM, 250 nM, 125 nM, 75 nM, 50 nM, 25 nM and 10 nM) were incubated for six hours.
HUVECs (Human Umbilical Vein Endothelial Cells) were seeded onto the pre-coated matrigel (CORNING; 354230) in 96 wells plate at the rate of 11000 cells/well in incomplete ECM basal medium. Control group received vehicle, VEGF at 50 ng/mL as a positive and sunitinib at 50 nM as a negative control were used. Compound 1 at different dose concentrations (10 μM, 5 μM, 1 μM, 800 nM, 500 nM, 250 nM, 100 nM, 75 nM, 50 nM and 25 nM) were employed on seeded HUVECs in incomplete medium. Post 6 h of incubation Calcein-AM (Invitrogen) was added to all the respective groups and then the tubule pattern was observed and photographs were taken using an inverted fluorescent microscope (DM 6000, Leica Microsystems, USA). Relative tubule lengths were measured using Leica Q-Win software version 3.5.1. (Leica Microsystems, Switzerland).

[1] = endothelial tubule network assay, anti-angiogenic activity

## COc1ccc(CC2(C(=O)OCc3ccccc3)N=C2C)cc1 (stereo not shown) [Compound 18, Benzyl 2-(4-methoxybenzyl)-3-methyl-2H-azirine-2-carboxylate]
[1]
  IC50: 400 nM

## CCOC(=O)C1N=C1CCc1ccc(F)cc1 (stereo not shown) [Compound 10, Ethyl 3-(4-fluorophenethyl)-2H-azirine-2-carboxylate]
[1]
  IC50: 600 nM

## CCOC(=O)C1N=C1CCc1ccc(N(C)C)cc1 (stereo not shown) [Compound 47, Ethyl 3-(4-(dimethylamino)phenethyl)-2H-azirine-2-carboxylate]
[1]
  IC50: 500 nM

## C=Cc1ccc(CCC2=NC2C(=O)OCC)cc1 (stereo not shown) [Compound 36, Ethyl 3-(4-vinylphenethyl)-2H-azirine-2-carboxylate]
[1]
  IC50: 250 nM

## CCOC(=O)C1N=C1CC/C=C(\C)CCC=C(C)C (stereo not shown) [Compound 5, Ethyl (E)-3-(4,8-dimethylnona-3,7-dien-1-yl)-2H-azirine-2-carboxylate]
[1]
  IC50: 350 nM

## CCOC(=O)C1N=C1CCC1CCCO1 (stereo not shown) [Compound 30, Ethyl 3-(2-(tetrahydrofuran-2-yl)ethyl)-2H-azirine-2-carboxylate]
[1]
  IC50: 250 nM

## CCOC(=O)C1N=C1CCc1cn(C(=O)OC(C)(C)C)c2ccccc12 (stereo not shown) [Compound 38, tert-Butyl-3-(2-(2-(ethoxycarbonyl)-2H-azirin-3-yl)ethyl)-1H-indole-1-carboxylate]
[1]
  IC50: 75 nM
  remarks: comparable to sunitinib

## CCOC(=O)C1N=C1CCC=C(C)C (stereo not shown) [Compound 4, Ethyl 3-(4-methylpent-3-en-1-yl)-2H-azirine-2-carboxylate]
Endothelial tubule network assay, result in words
  IC50 value: Not Active

## COc1ccc(CCC2=NC2C(=O)OC(C)(C)C)cc1 (stereo not shown) [Compound 17, tert-Butyl 3-(4-methoxyphenethyl)-2H-azirine-2-carboxylate]
[1]
  IC50: 400 nM

## CCOC(=O)C1N=C1CCc1ccc2c(c1)CCO2 (stereo not shown) [Compound 39, Ethyl 3-(2-(2,3-dihydrobenzofuran-5-yl)ethyl)-2H-azirine-2-carboxylate]
[1]
  IC50: 2500 nM

## CCOC(=O)C1(C(=O)OCC)N=C1CCc1ccc(OC)cc1 [Compound 35, Diethyl 3-(4-methoxyphenethyl)-2H-azirine-2,2-dicarboxylate]
[1]
  IC50: 250 nM

## CCC(C)OC(=O)C1N=C1CCc1ccc(OC)cc1 (stereo not shown) [Compound 22, sec-Butyl 3-(4-methoxyphenethyl)-2H-azirine-2-carboxylate]
[1]
  IC50: 600 nM

## CCOC(=O)C1N=C1/C=C/c1ccc(OC)cc1 (stereo not shown) [Compound 13, Ethyl (E)-3-(4-methoxystyryl)-2H-azirine-2-carboxylate]
[1]
  IC50: 100 nM
  remarks: comparable to sunitinib

## COc1ccc(CCC2=NC2c2nnn[nH]2)cc1 (stereo not shown) [Compound 51, 5-(3-(4-Methoxyphenethyl)-2H-azirin-2-yl)-1H-tetrazole]
[1]
  IC50: 100 nM
  remarks: comparable to sunitinib

## CCCCCOC(=O)C1N=C1CCc1ccc(OC)cc1 (stereo not shown) [Compound 23, Pentyl 3-(4-methoxyphenethyl)-2H-azirine-2-carboxylate]
[1]
  IC50: 600 nM

## CCOC(=O)C1N=C1CCCc1ccc2oc3ccccc3c2c1 (stereo not shown) [Compound 44, Ethyl 3-(3-(dibenzo[b,d]furan-2-yl)propyl)-2H-azirine-2-carboxylate]
[1]
  IC50: 250 nM

## CCOC(=O)C1N=C1CCCc1ccc2c(c1)CCO2 (stereo not shown) [Compound 37, Ethyl-3-(3-(2,3-dihydrobenzofuran-5-yl)propyl)-2H-azirine-2-carboxylate]
[1]
  IC50: 50 nM
  remarks: comparable to sunitinib

## CCOC(=O)C1N=C1CCc1ccc(Br)cc1 (stereo not shown) [Compound 15, Ethyl 3-(4-bromophenethyl)-2H-azirine-2-carboxylate]
[1]
  IC50: 800 nM

## CCCCOc1ccc(CCC2=NC2C(=O)OCC)cc1 (stereo not shown) [Compound 32, Ethyl 3-(4-butoxyphenethyl)-2H-azirine-2-carboxylate]
[1]
  IC50: 50 nM
  remarks: comparable to sunitinib

## CCOC(=O)C1N=C1CCc1ccc(C#N)cc1 (stereo not shown) [Compound 31, Ethyl 3-(4-cyanophenethyl)-2H-azirine-2-carboxylate]
[1]
  IC50: 250 nM

## CCOC(=O)C1N=C1CCCc1ccc2c(c1)CCCO2 (stereo not shown) [Compound 45, Ethyl 3-(3-(chroman-6-yl)propyl)-2H-azirine-2-carboxylate]
[1]
  IC50: 100 nM
  remarks: comparable to sunitinib

## CCOC(=O)C1N=C1CCc1ccc(C)cc1 (stereo not shown) [Compound 7, Ethyl 3-(4-methylphenethyl)-2H-azirine-2-carboxylate]
[1]
  IC50: 4000 nM

## CCOC(=O)C1N=C1CCc1ccc(C(C)(C)C)cc1 (stereo not shown) [Compound 9, Ethyl 3-(4-(tert-butyl)phenethyl)-2H-azirine-2-carboxylate]
[1]
  IC50: 550 nM

## COc1ccc(CCC2=NC2C#N)cc1 (stereo not shown) [Compound 48, 3-(4-Methoxyphenethyl)-2H-azirine-2-carbonitrile]
  IC50: 250 nM

## CCOC(=O)C1N=C1CCCc1ccc2occc2c1 (stereo not shown) [Compound 40, Ethyl-3-(3-(benzofuran-5-yl)propyl)-2H-azirine-2-carboxylate]
[1]
  IC50: 500 nM

## CCOC(=O)C1N=C1CCc1ccc(OC(F)(F)F)cc1 (stereo not shown) [Compound 28, Ethyl 3-(4-(trifluoromethoxy)phenethyl)-2H-azirine-2-carboxylate]
[1]
  IC50: 50 nM
  remarks: comparable to sunitinib

## CCOC(=O)C1N=C1CCc1ccc2ccccc2c1 (stereo not shown) [Compound 27, Ethyl 3-(2-(naphthalen-2-yl)ethyl)-2H-azirine-2-carboxylate]
[1]
  IC50: 100 nM
  remarks: comparable to sunitinib

## C=CCOC(=O)C1N=C1CCc1ccc(OC)cc1 (stereo not shown) [Compound 26, Allyl 3-(4-methoxyphenethyl)-2H-azirine-2-carboxylate]
[1]
  IC50: 500 nM

## CCOC(=O)C1N=C1CCc1ccc(OC2CCOC2)cc1 (stereo not shown) [Compound 50, Ethyl 3-(4-((tetrahydrofuran-3-yl)oxy)phenethyl)-2H-azirine-2-carboxylate]
[1]
  IC50: 250 nM

## COCCOC(=O)C1N=C1CCc1ccc(OC)cc1 (stereo not shown) [Compound 25, 2-Methoxyethyl 3-(4-methoxyphenethyl)-2H-azirine-2-carboxylate]
[1]
  IC50: 700 nM

## CCCOC(=O)C1N=C1CCc1ccc(OC)cc1 (stereo not shown) [Compound 19, Propyl 3-(4-methoxyphenethyl)-2H-azirine-2-carboxylate]
[1]
  IC50: 800 nM

## CCOC(=O)C1N=C1CCCc1ccc2c(c1)OCO2 (stereo not shown) [Compound 43, Ethyl 3-(3-(benzo[d][1,3]dioxol-5-yl)propyl)-2H-azirine-2-carboxylate]
[1]
  IC50: 250 nM

## CCCCCCCCOC(=O)C1N=C1CCc1ccc(OC)cc1 (stereo not shown) [Compound 29, Octyl 3-(4-methoxyphenethyl)-2H-azirine-2-carboxylate]
[1]
  IC50: 250 nM

## CCOC(=O)C1N=C1CCc1ccc2c(c1)OCO2 (stereo not shown) [Compound 41, Ethyl 3-(2-(benzo[d][1,3]dioxol-5-yl)ethyl)-2H-azirine-2-carboxylate]
[1]
  IC50: 1000 nM

## CCOC(=O)C1N=C1CCCCc1ccc2c(c1)CCO2 (stereo not shown) [Compound 42, Ethyl 3-(4-(2,3-dihydrobenzofuran-5-yl)butyl)-2H-azirine-2-carboxylate]
[1]
  IC50: 25 nM
  remarks: comparable to sunitinib

## CCOC(=O)C1N=C1CC/C=C/c1ccccc1 (stereo not shown) [Compound 11, Ethyl (E)-3-(4-phenylbut-3-en-1-yl)-2H-azirine-2-carboxylate]
[1]
  IC50: 450 nM

## COC(=O)C1N=C1CCc1ccc(OC)cc1 (stereo not shown) [Compound 14, Methyl 3-(4-methoxyphenethyl)-2H-azirine-2-carboxylate]
[1]
  IC50: 750 nM
